Here are results for 35 compounds from ChEMBL document CHEMBL1759855, “Synthesis and innate immunosuppressive effect of 1,2-cyclopentanediol derivatives” (Eur J Med Chem, 2011).

Each structure is given as a SMILES string. pEC50: −log10 of the molar value. Where only a bound is given, the exact number is not on record here.

In one data set the test system is Drosophila. Description: Ex vivo immunosuppressive activity in Drosophila larvae assessed as inhibition of IMD signaling pathway by beta-galactosidase reporter gene assay. The format is functional, organism-based. A general note: Reporter assays use an easily measured gene product as a stand-in for the process of interest.
Data set [1] in a line: Cytotoxicity against Drosophila S2 cells by MTT assay. The format is cell-based. To be noted: Drosophila melanogaster. (In general: Formazan colour is commonly taken as a measure of viable cells.)
For data set [2], the system named is HUVEC. Description: Cytotoxicity against human HUVEC assessed as cell viability at 50 ug/ml. The format is cell-based.
The test system of data set [3] is HUVEC. Nature of the data set: Immunosuppressive activity in human HUVEC assessed as inhibition of TNF-alpha-induced IL8 production at 50 ug/mL after 12 hrs by ELISA relative to control. In kind it is functional. Also on record: scale not given: the % may be the effect or the level left. For orientation: In an ELISA, binding on a coated surface is turned into a signal by an enzyme label.

The term pEC50 denotes −log10 of the EC50, conventionally taken in molar units. `COc1ccc(NC(=O)/C=C/[C@H]2C[C@@H](O)[C@@H](O)C2)cc1`: the figures for the pEC50 (with Drosophila; in data set [1]) were 5.51 and below 3.74, respectively. Also, in the data set with HUVEC [2], the Activity entry is listed as “Toxic”.

For the compound `O=C(/C=C/[C@H]1C[C@@H](O)[C@@H](O)C1)NC1CC1`, the pEC50 in the data set with Drosophila is 3.62; in data set [1], below 3.60.

In the case of `Cc1ccc(NC(=O)/C=C/[C@H]2C[C@@H](O)[C@@H](O)C2)cc1`, the negative logarithm of the EC50 (pEC50) is 3.72 in the data set with Drosophila and below 3.72 in data set [1].

As to `CC(=O)c1ccc(NC(=O)/C=C/[C@H]2C[C@@H](O)[C@@H](O)C2)cc1`, the pEC50 (in the data set with Drosophila; in data set [1]) was below 3.74 throughout.

For the compound `CCCCNC(=O)/C=C/[C@H]1C[C@@H](O)[C@@H](O)C1`, the pEC50 (with Drosophila; in data set [1]) was below 3.60 in each case.

With `C/C=C/[C@H]1C[C@@H](O)[C@@H](O)C1`, the pEC50 is 4.00 in the data set with Drosophila and below 3.46 in data set [1].

`CCNC(=O)/C=C/[C@H]1C[C@@H](O)[C@@H](O)C1`: the pEC50 in the data set with Drosophila is 3.60; in data set [1], below 3.60.

For the compound `O=C(/C=C/[C@H]1C[C@@H](O)[C@@H](O)C1)Nc1ccc(C(F)(F)F)cc1`, the pEC50 (with Drosophila; in data set [1]) was below 3.80 in each case.

In the case of `CNS(=O)(=O)/C=C/[C@H]1C[C@@H](O)[C@@H](O)C1`, the pEC50 is 5.40 with Drosophila and below 3.60 in data set [1]. The figures for the Activity entry with HUVEC [2] and in the data set on HUVEC [3] were “Non-toxic” and 70%, respectively.

`O=C(/C=C/[C@H]1C[C@@H](O)[C@@H](O)C1)Nc1ccc(Cl)cc1`: the pEC50 (in the data set on Drosophila; in data set [1]) was below 3.74 in each case.

Take `O=C(/C=C/[C@H]1C[C@@H](O)[C@@H](O)C1)Nc1ccccc1`: the pEC50 in the data set on Drosophila was 5.35; in data set [1] it was below 3.70. For the same compound, the Activity result was “Non-toxic” in the data set on HUVEC [2] and 70% with HUVEC [3].

As for `CN(C)C(=O)/C=C/[C@H]1C[C@@H](O)[C@@H](O)C1`, the pEC50 is 3.92 in the data set on Drosophila and below 3.60 in data set [1].

Regarding `O=C(/C=C/[C@H]1C[C@@H](O)[C@@H](O)C1)Nc1ccc(Cl)c(Cl)c1`, the values for the pEC50 (in the data set with Drosophila; in data set [1]) were 4.25 and below 3.80, respectively.

As to `O=C(/C=C/[C@H]1C[C@@H](O)[C@@H](O)C1)Nc1ccncc1`, the values for the pEC50 (with Drosophila; in data set [1]) were below 4.70 and below 3.70, respectively.

Consider `CCCCCC[C@H]1C[C@@H](O)[C@@H](O)C1`, for which the pEC50 (in the data set on Drosophila; in data set [1]) was 3.96 throughout.

For `O=C(/C=C/[C@H]1C[C@@H](O)[C@@H](O)C1)NO`, the pEC50 is 4.89 in the data set with Drosophila and below 3.60 in data set [1].

`CC(C)(C)c1ccc(NC(=O)/C=C/[C@H]2C[C@@H](O)[C@@H](O)C2)cc1`: the pEC50 was 5.36 in the data set on Drosophila and below 3.74 in data set [1]. Besides, the Activity result in the data set with HUVEC [2] is listed as “Toxic”.

Turning to `NC(=O)/C=C/[C@H]1C[C@@H](O)[C@@H](O)C1`, the values for the pEC50 (in the data set with Drosophila; in data set [1]) were 4.72 and below 3.60, respectively.

As for `CN(C)c1ccc(NC(=O)/C=C/[C@H]2C[C@@H](O)[C@@H](O)C2)cc1`, the pEC50 with Drosophila was 4.72; in data set [1], below 3.77.

Turning to `COC(=O)/C=C/[C@H]1C[C@@H](O)[C@@H](O)C1`, the pEC50 (in the data set with Drosophila; in data set [1]) was below 3.46 throughout.

Take `C/C=C/[C@@H]1C[C@@H](O)[C@@H](O)C1`: the pEC50 in the data set on Drosophila is 3.46; in data set [1] it was below 3.46.

As to `O=C(/C=C/[C@H]1C[C@@H](O)[C@@H](O)C1)Nc1ccc(F)cc1`, the pEC50 (in the data set on Drosophila; in data set [1]) was below 3.74 throughout.

In the case of `CCC[C@H]1C[C@@H](O)[C@@H](O)C1`, the pEC50 in the data set with Drosophila was 4.00; in data set [1] it was below 3.46.

Regarding `CNC(=O)/C=C/C(CCO)CCO`, the pEC50 (in the data set with Drosophila; in data set [1]) was below 3.60 each time.

As to `CCCCCCOC(=O)/C=C/[C@H]1C[C@@H](O)[C@@H](O)C1`, the pEC50 in the data set on Drosophila is 3.82; in data set [1], below 3.46.

As for `CCOC(=O)/C=C/[C@H]1C[C@@H](O)[C@@H](O)C1`, the pEC50 is 4.00 in the data set on Drosophila and below 3.46 in data set [1].

Turning to `CNC(=O)/C=C/[C@H]1C[C@@H](O)[C@@H](O)C1`, the figures for the pEC50 (in the data set with Drosophila; in data set [1]) were 5.27 and below 3.60, respectively. The Activity entry in the data set with HUVEC [2] is given as “Non-toxic”; with HUVEC [3] it was 70%.

For the compound `CNC(=O)CCC[C@H]1C[C@@H](O)[C@@H](O)C1`, the pEC50 in the data set on Drosophila was 5.08; in data set [1], below 3.60. Also, the Activity result was “Non-toxic” in the data set on HUVEC [2] and 70% in the data set on HUVEC [3].

Regarding `O=C(/C=C/[C@H]1C[C@@H](O)[C@@H](O)C1)Nc1ccc([N+](=O)[O-])cc1`, the pEC50 (in the data set with Drosophila; in data set [1]) was below 3.77 each time.

For `CNC(=O)CC[C@H]1C[C@@H](O)[C@@H](O)C1`, the pEC50 with Drosophila was 4.82; in data set [1], below 3.60.

As for `O=C(/C=C/[C@H]1C[C@@H](O)[C@@H](O)C1)N1CCCCC1`, the pEC50 was 3.74 in the data set on Drosophila and below 3.60 in data set [1].

As to `O=C(O)/C=C/[C@H]1C[C@@H](O)[C@@H](O)C1`, the values for the pEC50 (in the data set on Drosophila; in data set [1]) were 3.96 and below 3.46, respectively.

For the compound `CNC(=O)CCCC[C@H]1C[C@@H](O)[C@@H](O)C1`, the pEC50 (in the data set with Drosophila; in data set [1]) was below 3.60 each time.

For the compound `CNC(=O)C[C@H]1C[C@@H](O)[C@@H](O)C1`, the pEC50 was 4.26 in the data set with Drosophila and below 3.60 in data set [1].

`O=C(/C=C/[C@H]1C[C@@H](O)[C@@H](O)C1)Oc1ccccc1`: the pEC50 in the data set on Drosophila was 4.00; in data set [1], below 3.70.
